Assay results as given in ChEMBL document CHEMBL4765389, “Antimicrobial and anti-inflammatory activities of short dodecapeptides derived from duck cathelicidin: Plausible mechanism of bactericidal action and endotoxin neutralization” (Eur J Med Chem, 2020).
Calls of active or inactive are those of the source. The calls are words filed in the database; no cut-off is given here.

Key:
Erythrocyte [1] = assay: Hemolytic activity in sheep RBC assessed as reduction in hemoglobin at 256 uM incubated for 1 hr; assay type: ADME, cell-based, Ovis aries
[2] = Cytotoxicity against mouse RAW264.7 cells assessed as reduction in cell viability at 20 uM incubated for 24 hrs by MTT assay; assay type: cell-based; conditions: read-out: INH
[3] = Cytotoxicity against mouse NIH/3T3 cells assessed as reduction in cell viability at 20 uM incubated for 24 hrs by MTT assay; assay type: cell-based, NIH3T3; conditions: NIH/3T3 cells, read-out: INH
Staphylococcus aureus [4] = assay: Antibacterial activity against Staphylococcus aureus KCTC 1621 assessed as reduction in bacterial growth incubated for 24 hrs by CLSI based broth dilution method; assay type: functional; conditions: read-out: MIC100
[5] = test system: Staphylococcus epidermidis; assay: Antibacterial activity against Staphylococcus epidermidis KCTC 1917 assessed as reduction in bacterial growth incubated for 24 hrs by CLSI based broth dilution method; assay type: functional; conditions: read-out: MIC100
Bacillus subtilis = assay: Antibacterial activity against Bacillus subtilis KCTC 3068 assessed as reduction in bacterial growth incubated for 24 hrs by CLSI based broth dilution method; assay type: functional; conditions: read-out: MIC100
Staphylococcus aureus [6] = assay: Antibacterial activity against methicillin-resistant Staphylococcus aureus CCARM 3089 assessed as reduction in bacterial growth incubated for 24 hrs by CLSI based broth dilution method; assay type: functional; conditions: read-out: MIC100
Staphylococcus aureus [7] = assay: Antibacterial activity against methicillin-resistant Staphylococcus aureus CCARM 3090 assessed as reduction in bacterial growth incubated for 24 hrs by CLSI based broth dilution method; assay type: functional; conditions: read-out: MIC100
Staphylococcus aureus [8] = assay: Antibacterial activity against methicillin-resistant Staphylococcus aureus CCARM 3095 assessed as reduction in bacterial growth incubated for 24 hrs by CLSI based broth dilution method; assay type: functional; conditions: read-out: MIC100
Enterococcus faecium = assay: Antibacterial activity against vancomycin-resistant Enterococcus faecium ATCC 51559 assessed as reduction in bacterial growth incubated for 24 hrs by CLSI based broth dilution method; assay type: functional; conditions: read-out: MIC100
Escherichia coli [9] = assay: Antibacterial activity against Escherichia coli KCTC 1682 assessed as reduction in bacterial growth incubated for 24 hrs by CLSI based broth dilution method; assay type: functional; conditions: read-out: MIC100
Pseudomonas aeruginosa = assay: Antibacterial activity against Pseudomonas aeruginosa KCTC 1637 assessed as reduction in bacterial growth incubated for 24 hrs by CLSI based broth dilution method; assay type: functional; conditions: read-out: MIC100
Salmonella typhimurium = assay: Antibacterial activity against Salmonella typhimurium KCTC 1926 assessed as reduction in bacterial growth incubated for 24 hrs by CLSI based broth dilution method; assay type: functional, Salmonella enterica subsp. enterica serovar Typhimurium; conditions: Salmonella enterica, read-out: MIC100
[10] = Antibacterial activity against multidrug-resistant Pseudomonas aeruginosa CCARM 2095 assessed as reduction in bacterial growth incubated for 24 hrs by CLSI based broth dilution method; assay type: functional; conditions: read-out: MIC100
[11] = Antibacterial activity against multidrug-resistant Pseudomonas aeruginosa CCARM 2109 assessed as reduction in bacterial growth incubated for 24 hrs by CLSI based broth dilution method; assay type: functional; conditions: read-out: MIC100
Candida albicans [12] = assay: Antifungal activity against Candida albicans KCTC 7965 assessed as reduction in fungal growth incubated for 24 hrs by CLSI based broth dilution method; assay type: functional; conditions: read-out: MIC100
Candida albicans [13] = assay: Antifungal activity against Candida albicans KCTC 7121 assessed as reduction in fungal growth incubated for 24 hrs by CLSI based broth dilution method; assay type: functional; conditions: read-out: MIC100
Erythrocyte [14] = assay: Hemolytic activity in sheep RBC assessed as reduction in hemoglobin incubated for 1 hr; assay type: ADME, cell-based, Ovis aries
Bacteria [15] = assay: Antibacterial activity against Gram positive bacteria assessed as reduction in bacterial growth incubated for 24 hrs by CLSI based broth dilution method; assay type: functional; conditions: read-out: MIC100
Bacteria [16] = assay: Antibacterial activity against Gram negative bacteria assessed as reduction in bacterial growth incubated for 24 hrs by CLSI based broth dilution method; assay type: functional; conditions: read-out: MIC100
Saccharomyces cerevisiae = assay: Antifungal activity against yeast assessed as reduction in fungal growth incubated for 24 hrs by CLSI based broth dilution method; assay type: functional; conditions: read-out: MIC100
[17] = Therapeutic index, ratio of HC10 for sheep RBC to geometric mean MIC for gram positive bacteria; assay type: toxicity; conditions: sheep red blood cells, read-out: TI
[18] = Therapeutic index, ratio of HC10 for sheep RBC to geometric mean MIC for gram negative bacteria; assay type: toxicity; conditions: sheep red blood cells, read-out: TI
[19] = Therapeutic index, ratio of HC10 for sheep RBC to geometric mean MIC for yeast; assay type: toxicity; conditions: sheep red blood cells, read-out: TI
RAW264.7 [20] = assay: Antiinflammatory activity against mouse RAW264.7 cells assessed as reduction in LPS-induced nitrite level at 5 uM incubated for 24 hrs by Griess reagent based assay relative to control; assay type: functional
RAW264.7 [21] = assay: Antiinflammatory activity against mouse RAW264.7 cells assessed as reduction in LPS-induced TNFalpha level at 10 uM incubated for 24 hrs by […] relative to control; assay type: functional
[22] = Retention time of the compound by RP-HPLC method; assay type: physicochemical
Escherichia coli [23] = assay: Bacteriostatic activity against Escherichia coli KCTC 1682 assessed as reduction in colony forming unit at 0.5 times MIC measured for 24 hrs by time kill assay; assay type: functional

Compound | Activity (Erythrocyte [1]) | cytotoxicity at 24 h, 20 µM [2] | cytotoxicity at 24 h, 20 µM [3] | MIC (Staphylococcus aureus [4]) | MIC [5] | MIC (Bacillus subtilis) | MIC (Staphylococcus aureus [6]) | MIC (Staphylococcus aureus [7]) | MIC (Staphylococcus aureus [8]) | MIC (Enterococcus faecium) | MIC (Escherichia coli [9]) | MIC (Pseudomonas aeruginosa) | MIC (Salmonella typhimurium) | MIC [10] | MIC [11] | MIC (Candida albicans [12]) | MIC (Candida albicans [13]) | HC10 (Erythrocyte [14]) | MIC (Bacteria [15]) | MIC (Bacteria [16]) | other results
H-LAKKIYRAWKRR-NH2 | Non-Toxic | < 10% | < 10% | 4 µM | 8 µM | 8 µM | 32 µM | 16 µM | 16 µM | 16 µM | 8 µM | 4 µM | 4 µM | 32 µM | 32 µM | 8 µM | 8 µM | > 256 µM | 14.2 µM | 16 µM | MIC (Saccharomyces cerevisiae): 8 µM; selectivity ratio [17]: 36.1; selectivity ratio [18]: 32; selectivity ratio [19]: 64; inhibition at 5 µM (RAW264.7 [20]): < 10%; inhibition at 10 µM (RAW264.7 [21]): < 10%; Retention_time [22]: 14.1 min
H-VPLAIKIYRAWKRR-NH2 | Non-Toxic | < 10% | < 10% | 8 µM | 16 µM | 4 µM | 32 µM | 32 µM | 32 µM | 16 µM | 16 µM | 8 µM | 8 µM | 32 µM | 32 µM | 16 µM | 16 µM | > 256 µM | 20 µM | 19.2 µM | MIC (Saccharomyces cerevisiae): 16 µM; selectivity ratio [17]: 25.6; selectivity ratio [18]: 26.7; selectivity ratio [19]: 32; Retention_time [22]: 21.7 min
CCn1cc(C(=O)O)c(=O)c2ccc(C)nc21 | – | – | – | – | – | – | – | – | – | – | – | – | – | – | – | – | – | – | – | – | Activity (Escherichia coli [23]): inactive
H-LAKKIYRAWKRW-NH2 | Non-Toxic | < 10% | < 10% | 4 µM | 8 µM | 4 µM | 32 µM | 16 µM | 16 µM | 16 µM | 16 µM | 4 µM | 2 µM | 16 µM | 32 µM | 8 µM | 8 µM | > 256 µM | 13.7 µM | 14 µM | MIC (Saccharomyces cerevisiae): 8 µM; selectivity ratio [17]: 37.4; selectivity ratio [18]: 36.6; selectivity ratio [19]: 64; inhibition at 5 µM (RAW264.7 [20]): < 10%; inhibition at 10 µM (RAW264.7 [21]): < 10%; Retention_time [22]: 17.1 min
H-QLVPLAIKIYRAWKRR-NH2 | Non-Toxic | 35% | 50% | 8 µM | 16 µM | 16 µM | 32 µM | 16 µM | 32 µM | 32 µM | 32 µM | 16 µM | 16 µM | 32 µM | 32 µM | 8 µM | 16 µM | 180 µM | 21.7 µM | 25.6 µM | MIC (Saccharomyces cerevisiae): 12 µM; selectivity ratio [17]: 8.3; selectivity ratio [18]: 7; selectivity ratio [19]: 15; Retention_time [22]: 24.1 min
H-LAKKIYRKWKRW-NH2 | Non-Toxic | < 10% | < 10% | 4 µM | 4 µM | 4 µM | 16 µM | 16 µM | 16 µM | 8 µM | 8 µM | 4 µM | 2 µM | 16 µM | 8 µM | 8 µM | 8 µM | > 256 µM | 9.7 µM | 7.6 µM | MIC (Saccharomyces cerevisiae): 8 µM; selectivity ratio [17]: 52.8; selectivity ratio [18]: 67.4; selectivity ratio [19]: 64; inhibition at 5 µM (RAW264.7 [20]): < 10%; inhibition at 10 µM (RAW264.7 [21]): < 10%; Retention_time [22]: 15.1 min
